Assay results as given in article PMC7765489, “Structural Characterization of Glycerol Kinase from the Thermophilic Fungus Chaetomium thermophilum” (International Journal of Molecular Sciences, 2020).

How the values were obtained:
[1] = biological target: T1, CtGK (Thermochaetoides thermophila, UniProt G0SAG9); test: thermal shift assay, Sypro Orange; type: binding; details: 50 mM Tris, 200 mM NaCl, pH 8.0
T1 construct: gene CTHT_0042250; residues 67-590 (models start at residue 65), N-terminal His-tag cut by TEV, codon-optimized gene, E. coli BL21(DE3), dimer
T1 sequence (G0SAG9 67-590): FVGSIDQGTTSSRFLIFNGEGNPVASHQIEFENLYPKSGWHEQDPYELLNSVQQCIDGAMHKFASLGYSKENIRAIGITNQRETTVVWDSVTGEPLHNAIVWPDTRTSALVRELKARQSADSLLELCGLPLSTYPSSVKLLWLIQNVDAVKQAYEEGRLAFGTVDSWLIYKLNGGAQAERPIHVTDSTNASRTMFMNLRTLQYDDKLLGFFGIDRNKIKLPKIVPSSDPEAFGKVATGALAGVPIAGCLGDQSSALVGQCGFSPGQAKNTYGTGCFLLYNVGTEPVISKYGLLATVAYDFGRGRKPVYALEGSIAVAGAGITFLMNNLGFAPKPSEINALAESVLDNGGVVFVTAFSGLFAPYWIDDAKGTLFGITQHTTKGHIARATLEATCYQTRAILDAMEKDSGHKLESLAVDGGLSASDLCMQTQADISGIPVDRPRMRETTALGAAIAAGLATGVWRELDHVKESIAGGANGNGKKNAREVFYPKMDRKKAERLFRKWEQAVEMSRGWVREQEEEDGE

[2] = biological target: T1, CtGK; test: X-ray crystal structure (glycerol soak); type: binding; details: 20-25% glycerol as cryoprotectant; 0.2 M CaCl2, PEG 3350; active site in N-terminal domain
[3] = biological target: the molecule itself; test: SEC-MALS; XBridge BEH200 7.8 x 300 column, 50 mM Tris pH 7.8, 200 mM NaCl, 1 mL/min
[4] = substrate: Nc1ncnc2c1ncn2[C@@H]1O[C@H](COP(=O)(O)OP(=O)(O)OP(=O)(O)O)[C@@H](O)[C@H]1O; test: purified protein; type: biochemical, Thermochaetoides thermophila; details: 1 mM glycerol, 5 mM MgCl2, 50 mM KCl, 250 mM sucrose, 20 mM Tris-HCl pH 7.4, 37 °C, substrate inhibition at high ATP

## Nc1ncnc2c1ncn2[C@@H]1O[C@H](COP(=O)(O)OP(=O)(O)O)[C@@H](O)[C@H]1O [ADP]
[1]; 0.5 mM ADP, no glycerol
  Tm: 55.0 ± 1.11 °C

## Nc1ncnc2c1ncn2[C@@H]1O[C@H](COP(=O)(O)OP(=O)(O)OP(=O)(O)O)[C@@H](O)[C@H]1O [ATP]
[1]; 0.5 mM ATP, no glycerol
  Tm: 54.5 ± 0.00 °C

## O=P(O)(O)OC[C@H]1OC(O)(COP(=O)(O)O)[C@@H](O)[C@@H]1O (stereo partly shown) [fructose-1,6-bisphosphate]
[1]; 0.5 mM FBP, with GOL and ATP, site unidentified
  Tm: FBP prevents the protein destabilization by GOL and ATP (Figure S1B)

## OCC(O)CO [glycerol]
[1]; 5% glycerol, no nucleotide
  Tm: 53.88 ± 0.48 °C
[2]
  X-ray crystal structure (glycerol soak): we were able to solve the enzyme-substrate complex with a clear electron density

B1: glycerol kinase from Chaetomium thermophilum (enzyme, UniProt G0SAG9 67-590, looked up)
chain: FVGSIDQGTTSSRFLIFNGEGNPVASHQIEFENLYPKSGWHEQDPYELLNSVQQCIDGAMHKFASLGYSKENIRAIGITNQRETTVVWDSVTGEPLHNAIVWPDTRTSALVRELKARQSADSLLELCGLPLSTYPSSVKLLWLIQNVDAVKQAYEEGRLAFGTVDSWLIYKLNGGAQAERPIHVTDSTNASRTMFMNLRTLQYDDKLLGFFGIDRNKIKLPKIVPSSDPEAFGKVATGALAGVPIAGCLGDQSSALVGQCGFSPGQAKNTYGTGCFLLYNVGTEPVISKYGLLATVAYDFGRGRKPVYALEGSIAVAGAGITFLMNNLGFAPKPSEINALAESVLDNGGVVFVTAFSGLFAPYWIDDAKGTLFGITQHTTKGHIARATLEATCYQTRAILDAMEKDSGHKLESLAVDGGLSASDLCMQTQADISGIPVDRPRMRETTALGAAIAAGLATGVWRELDHVKESIAGGANGNGKKNAREVFYPKMDRKKAERLFRKWEQAVEMSRGWVREQEEEDGE
notes: glycerol kinase, Chaetomium thermophilum, UniProt G0SAG9, residues 67-590; codon-optimised synthetic gene in pET24d with N-terminal His-Tag and TEV site; The crystal models begin at residue 65 (67 for chain B) although the construct is stated as 67-590; also called CtGK; GK; source: E. coli BL21 (DE3), purified (Ni-Sepharose, TEV cleavage, second Ni-Sepharose, gel filtration on Superdex 75); not …
[3]
  stoichiometry N: 2
[4]
  Km: 52 ± 9 µM
